# Measurements from ChEMBL document CHEMBL1201862, “PubChem BioAssay data set” (2004).
#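 These data come from cells grown in 96-well plates and exposed to compound for 48 hours at five concentrations. At the GI50, growth is halved.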 Active and inactive are the calls of the source. Cut-off read from the data, not from the text of the source: active = GI50 up to about 1.1 µM and inactive = higher.
# How the values were obtained:
# Assay in all cases: NCI anticancer screen, dose series, 48 h
# HL-60 = tested on: HL-60
# SF-295 = tested on: SF-295
# MDA-MB-435 = tested on: MDA-MB-435
# UACC-62 = tested on: UACC-62
# SK-MEL-2 = tested on: SK-MEL-2
# OVCAR-5 = tested on: OVCAR-5
# HOP-62 = tested on: HOP-62
# SW-620 = tested on: SW-620
# MDA-MB-231 = tested on: MDA-MB-231
# 786-0 = tested on: 786-0
# SK-OV-3 = tested on: SK-OV-3
# COLO 205 = tested on: COLO 205
# RXF 393 = tested on: RXF 393
# UO-31 = tested on: UO-31
# SF-268 = tested on: SF-268
# SN12C = tested on: SN12C
# SK-MEL-5 = tested on: SK-MEL-5
# IGROV-1 = tested on: IGROV-1
# TK-10 = tested on: TK-10
# HOP-92 = tested on: HOP-92
# HT-29 = tested on: HT-29
# A549 = tested on: A549
# UACC-257 = tested on: UACC-257
# SK-MEL-28 = tested on: SK-MEL-28
# ACHN = tested on: ACHN
# HCT-15 = tested on: HCT-15
# Hs-578T = tested on: Hs-578T
# OVCAR-3 = tested on: OVCAR-3
# A498 = tested on: A498
# OVCAR-8 = tested on: OVCAR-8
# DU-145 = tested on: DU-145
# K562 = tested on: K562
# SF-539 = tested on: SF-539
# MCF7 = tested on: MCF7
# NCI-H23 = tested on: NCI-H23
# NCI-H226 = tested on: NCI-H226
# BT-549 = tested on: BT-549
# HCT-116 = tested on: HCT-116
# NCI-H522 = tested on: NCI-H522
# PC-3 = tested on: PC-3
# CCRF-CEM = tested on: CCRF-CEM
# M14 = tested on: M14
# SNB-19 = tested on: SNB-19
# NCI-H460 = tested on: NCI-H460
# U-251 = tested on: U-251
# HCC 2998 = tested on: HCC 2998
# LOX IMVI = tested on: LOX IMVI
# SNB-75 = tested on: SNB-75
# NCI/ADR-RES = tested on: NCI/ADR-RES
# Malme-3M = tested on: Malme-3M
# EKVX = tested on: EKVX
# OVCAR-4 = tested on: OVCAR-4
# MDA-N = tested on: MDA-N
# MOLT-4 = tested on: MOLT-4
# KM12 = tested on: KM12
# RPMI-8226 = tested on: RPMI-8226
# CAKI-1 = tested on: CAKI-1
# SR = tested on: SR
compound,measurement,setting,value
N#Cc1c(O)c(/N=N/c2ccccc2F)c(=O)n2c1[nH]c1ccccc12,GI50,HL-60,33 µM (inactive)
same,GI50,SF-295,33 µM (inactive)
same,GI50,MDA-MB-435,21.6 µM (inactive)
same,GI50,UACC-62,20.6 µM (inactive)
same,GI50,SK-MEL-2,20.9 µM (inactive)
same,GI50,OVCAR-5,34 µM (inactive)
same,GI50,HOP-62,43.7 µM (inactive)
same,GI50,SW-620,63.2 µM (inactive)
same,GI50,MDA-MB-231,22.2 µM (inactive)
same,GI50,786-0,43.7 µM (inactive)
same,GI50,SK-OV-3,50.5 µM (inactive)
same,GI50,COLO 205,55.1 µM (inactive)
same,GI50,RXF 393,37.8 µM (inactive)
same,GI50,UO-31,29.3 µM (inactive)
same,GI50,SF-268,32.4 µM (inactive)
same,GI50,SN12C,31.6 µM (inactive)
same,GI50,SK-MEL-5,42 µM (inactive)
same,GI50,IGROV-1,74.8 µM (inactive)
same,GI50,TK-10,55.6 µM (inactive)
same,GI50,HOP-92,15.1 µM (inactive)
same,GI50,HT-29,23.3 µM (inactive)
same,GI50,A549,42.5 µM (inactive)
same,GI50,UACC-257,33.9 µM (inactive)
same,GI50,SK-MEL-28,29.4 µM (inactive)
same,GI50,ACHN,34 µM (inactive)
same,GI50,HCT-15,37.2 µM
same,GI50,Hs-578T,15.4 µM (inactive)
same,GI50,OVCAR-3,36 µM (inactive)
same,GI50,A498,60.5 µM (inactive)
same,GI50,OVCAR-8,39.3 µM (inactive)
same,GI50,DU-145,42.4 µM (inactive)
same,GI50,K562,36.3 µM (inactive)
same,GI50,SF-539,> 100 µM (inactive)
same,GI50,MCF7,32.7 µM (inactive)
same,GI50,NCI-H23,38.2 µM (inactive)
same,GI50,NCI-H226,33.7 µM (inactive)
same,GI50,BT-549,60 µM (inactive)
same,GI50,HCT-116,26.6 µM (inactive)
same,GI50,NCI-H522,27.9 µM (inactive)
same,GI50,PC-3,30.3 µM (inactive)
same,GI50,CCRF-CEM,36.8 µM (inactive)
same,GI50,M14,22.4 µM (inactive)
same,GI50,SNB-19,48.1 µM (inactive)
same,GI50,NCI-H460,32.6 µM (inactive)
same,GI50,U-251,32.7 µM (inactive)
same,GI50,HCC 2998,53.6 µM (inactive)
same,GI50,LOX IMVI,61.9 µM (inactive)
same,GI50,SNB-75,30.4 µM (inactive)
same,GI50,NCI/ADR-RES,50 µM (inactive)
same,GI50,Malme-3M,28.5 µM (inactive)
same,GI50,EKVX,> 100 µM (inactive)
same,GI50,OVCAR-4,39.3 µM (inactive)
same,GI50,MDA-N,22 µM (inactive)
N[C@@H]1CCN(c2c(F)cc3c(=O)c(C(=O)O)cn4c3c2Oc2c-4ccc3c2ccc2ccccc23)C1,GI50,HL-60,5.16 µM (inactive)
same,GI50,SF-295,1.92 µM (inactive)
same,GI50,MDA-MB-435,3.03 µM (inactive)
same,GI50,UACC-62,2.79 µM (inactive)
same,GI50,SK-MEL-2,7.8 µM (inactive)
same,GI50,OVCAR-5,2.86 µM (inactive)
same,GI50,HOP-62,1.38 µM (inactive)
same,GI50,SW-620,0.671 µM (active)
same,GI50,786-0,0.412 µM (active)
same,GI50,SK-OV-3,7.46 µM (inactive)
same,GI50,COLO 205,2.99 µM (inactive)
same,GI50,RXF 393,1.2 µM (inactive)
same,GI50,UO-31,3.24 µM (inactive)
same,GI50,SF-268,5.73 µM (inactive)
same,GI50,SN12C,3.37 µM (inactive)
same,GI50,SK-MEL-5,1.44 µM (inactive)
same,GI50,IGROV-1,0.413 µM (active)
same,GI50,TK-10,2.38 µM (inactive)
same,GI50,HOP-92,2.13 µM (inactive)
same,GI50,HT-29,0.241 µM (active)
same,GI50,A549,2.39 µM (inactive)
same,GI50,UACC-257,5.42 µM (inactive)
same,GI50,SK-MEL-28,> 100 µM (inactive)
same,GI50,ACHN,0.305 µM (active)
same,GI50,HCT-15,1.96 µM
same,GI50,MOLT-4,4 µM (inactive)
same,GI50,Hs-578T,10.8 µM (inactive)
same,GI50,OVCAR-3,21.5 µM (inactive)
same,GI50,KM12,4.38 µM (inactive)
same,GI50,A498,11.9 µM (inactive)
same,GI50,RPMI-8226,0.396 µM (active)
same,GI50,OVCAR-8,1.38 µM (inactive)
same,GI50,DU-145,3.81 µM (inactive)
same,GI50,K562,3.1 µM (inactive)
same,GI50,SF-539,3.01 µM (inactive)
same,GI50,MCF7,0.667 µM (active)
same,GI50,NCI-H23,3.1 µM (inactive)
same,GI50,NCI-H226,19.9 µM (inactive)
same,GI50,BT-549,> 100 µM (inactive)
same,GI50,HCT-116,1.08 µM (active)
same,GI50,NCI-H522,3.18 µM (inactive)
same,GI50,PC-3,2.82 µM (inactive)
same,GI50,CAKI-1,6.53 µM (inactive)
same,GI50,M14,5.55 µM (inactive)
same,GI50,SNB-19,0.344 µM (active)
same,GI50,NCI-H460,0.396 µM (active)
same,GI50,SR,0.225 µM (active)
same,GI50,U-251,0.571 µM (active)
same,GI50,HCC 2998,0.494 µM (active)
same,GI50,LOX IMVI,1.68 µM (inactive)
same,GI50,NCI/ADR-RES,23.2 µM (inactive)
same,GI50,EKVX,0.857 µM (active)
same,GI50,OVCAR-4,1.17 µM (inactive)
same,GI50,MDA-N,1.55 µM (inactive)
